Test results reported in ChEMBL document CHEMBL1156829 (Proc Natl Acad Sci U S A, 2008).

Columns and labels:
Plasmodium falciparum [1] = assay: NOVARTIS: Inhibition of Plasmodium falciparum 3D7 (drug-susceptible) proliferation in erythrocyte-based infection assay; format: functional, organism-based; settings: Plasmodium falciparum, 3D7
[2] = NOVARTIS: Cytotoxicity against human hepatocellular carcinoma cell line (Huh7); format: toxicity, cell-based, Huh-7; settings: Huh7 cells (hepatocellular carcinoma cell line)
Plasmodium falciparum [3] = assay: NOVARTIS: Inhibition of Plasmodium falciparum W2 (drug-resistant) proliferation in erythrocyte-based infection assay; format: functional, organism-based; settings: Plasmodium falciparum, W2; read-out: EC50

Row | SMILES | EC50 (Plasmodium falciparum [1]) | CC50 [2] | EC50 (Plasmodium falciparum [3])
1 | O=C(N1CCN(c2ccc(C(F)(F)F)cc2[N+](=O)[O-])CC1)C(Cl)(Cl)Cl | 263 nM | > 95 µM | 86.6 nM
2 | COC(=O)c1ccc(N(C(=O)Cc2c[nH]c3ccccc23)C(C(=O)NC2CCCCC2)c2cccnc2)cc1 (configuration not stated) | 232 nM | > 100 µM | 132 nM
3 | C=CCSc1nc2sc3c(c2c(=O)n1-c1ccccc1)CCN(CCC)C3 | 634 nM | > 100 µM | 847 nM
4 | CN(CCCNc1ccnc2cc(Cl)ccc12)C(=O)C1CC1 | 164 nM | > 7.25 µM | 46.7 nM
5 | O=C(Nc1ccc(Oc2cccnc2)cc1)C1CCN(Cc2ccc3nonc3c2)CC1 | 1130 nM | > 100 µM | 1420 nM
6 | O=C(c1ccccc1)C1NC1c1ccc(Br)cc1 (configuration not stated) | 989 nM | > 100 µM | 1120 nM
7 | OC(CNc1cccc2ccccc12)Cn1c2ccccc2c2ccccc21 (configuration not stated) | 2590 nM | 14.9 µM | 883 nM
8 | Cc1ccc(S(=O)(=O)Nn2c(SCC(=O)NCCc3ccc(S(N)(=O)=O)cc3)nc3ccccc3c2=O)cc1 | > 12500 nM | > 100 µM | 2490 nM
9 | CCOC(=O)C1=C(C)NC2=C(C(=O)CC(c3ccc(OC)c(OC)c3)C2)C1c1cccc(Cl)c1 (configuration not stated) | 88.2 nM | > 74.6 µM | 55.6 nM
10 | O=C1CN=C(c2ccccc2Cl)c2cc(Cl)ccc2N1Cc1cccc([N+](=O)[O-])c1 | > 4470 nM | > 100 µM | > 4670 nM
11 | CC1=C(C(=O)OC(C)C)C(c2ccc([N+](=O)[O-])cc2)C2=C(CCCC2=O)N1 (configuration not stated) | 6230 nM | > 100 µM | 1140 nM
12 | CCC(C)Nc1nc(NC(C)CC)nc(N2CCCCCC2)n1 (configuration not stated) | 479 nM | 14.7 µM | 382 nM
13 | COc1ccc(NC(=O)NCc2cccn2Cc2ccc(F)cc2)cc1OC | 1070 nM | > 10 µM | 661 nM
14 | Oc1ccc(-c2cncc(NCc3ccccc3)n2)cc1 | 1750 nM | > 10 µM | > 1250 nM
15 | CCCOc1ccc(Cc2c(C)nc3ccc(Br)cc3c2O)cc1 | 1030 nM | > 10 µM | 1100 nM
16 | CN(CCCNc1ccnc2cc(Cl)ccc12)C(=O)c1ccc(F)cc1 | 127 nM | > 10 µM | 212 nM
17 | CC(=O)Nc1ccc(C2NC(=O)NC3=Nc4ccccc4SC(c4ccccc4)=C32)cc1 (configuration not stated) | 1020 nM | > 100 µM | 689 nM

Row | SMILES | EC50 (Plasmodium falciparum [1]) | CC50 [2] | EC50 (Plasmodium falciparum [3])
18 | CCOC(=O)NC(=O)N1CCC(c2nc(-c3cc(C(C)(C)C)c(O)c(C(C)(C)C)c3)cs2)CC1 | 1660 nM | > 10 µM | 1880 nM
19 | COC(=O)c1c(S(=O)(=O)NCCc2ccccc2)sc2c1CCN(Cc1cccnc1)C2 | 1580 nM | > 10 µM | 1910 nM
20 | CCOC(=O)C1=C(C)NC2=C(C(=O)CC(c3ccc(OC)cc3)C2)C1c1cccs1 (configuration not stated) | 833 nM | > 100 µM | 189 nM
21 | COC(=O)N(C)C(C)(C)C(C)=NOC(=O)c1ccccc1 | > 1620 nM | > 10 µM | > 1180 nM
22 | Cc1ccccc1Cn1cc(NC(=O)c2cc(-c3cccs3)on2)cn1 | > 1250 nM | > 10 µM | 1420 nM
23 | CCOC(=O)c1ccc(NC(=O)c2ccc3nc(NC(=O)c4ccc(C(=O)OC)cc4)sc3c2)cc1 | > 6510 nM | > 100 µM | 1800 nM
24 | COc1ccc2nc3cc(Cl)ccc3c(NCCN(CCN)CCN)c2c1 | 808 nM | > 10 µM | 254 nM
25 | Cc1ccc(-c2cc(C(F)(F)F)n3nc(C(=O)Nc4cccc(Cl)c4Cl)cc3n2)cc1 | > 1250 nM | > 10 µM | > 321 nM
26 | COc1ccc(-n2nc(C(C)(C)C)cc2NC(=O)CN(C(=O)c2ccc(C(C)(C)C)cc2)C(C)C)cc1 | 1680 nM | 34.6 µM | 1850 nM
27 | COc1cc(C=NNc2nc3ccccc3[nH]2)ccc1O | 205 nM | 43.1 µM | 307 nM
28 | Cc1cc(Nc2ccc(C)c(C)c2)n2cnnc2n1 | 242 nM | > 73.9 µM | 590 nM
29 | CCOC(=O)Cn1cnc2c(nnn2Cc2ccc(F)cc2)c1=O | 380 nM | > 1.7 µM | 160 nM
30 | CCCCCCC(NC(=O)OCc1ccccc1)S(=O)(=O)c1ccc(C)cc1 (configuration not stated) | > 12500 nM | > 100 µM | 5800 nM
31 | Cn1nc(C(=O)N2CCCCCC2)c2c1CCC(NCC(C)(C)N1CCOCC1)C2 (configuration not stated) | 22.5 nM | > 9.56 µM | 5.52 nM
32 | CC(Sc1nnc2c3ccccc3n(Cc3ccccc3)c2n1)C(=O)N1CCN(C(=O)C(c2ccccc2)c2ccccc2)C(C)C1 (configuration not stated) | 914 nM | > 10 µM | 127 nM
33 | CCOC(=O)CN1C(=O)c2ccccc2Sc2ncccc21 | > 1120 nM | > 10 µM | > 644 nM
34 | OCC1CCCN1c1nccnc1-c1ccccc1Oc1ccccc1 (configuration not stated) | > 868 nM | > 10 µM | > 1250 nM
